These results are taken from patent US11236087B2, “Highly active pyrazolo-piperidine substituted indole-2-carboxamides active against the hepatitis B virus (HBV)” (AiCuris GmbH & Co. KG, priority 2017, dated 2022).

For orientation: EC50 means the concentration needed to bring the measured effect to its halfway point. For orientation: CC50 means the concentration giving 50% cytotoxicity.

The test system of one data set is HBV. Put plainly: Determination of HBV DNA from the supernatants of HepAD38 cells (anti-HBV activity). It is filed as cell-based, hepatitis B virus. To be noted: Hepatitis B virus, 144 h; HBV DNA in HepAD38 supernatant, day 6, qPCR; read-out: Cell Activity (EC50). The method, then: Determination of HBV DNA from the Supernatants of HepAD38 Cells
The anti-HBV activity was analysed in the stable transfected cell line HepAD38, which has been described to secrete high levels of HBV virion particles (Ladner et al., 1997). In brief, HepAD38 cells were cultured at 37° C. at 5% CO2 and 95% humidity in 200 μl maintenance medium, which was Dulbecco's modified Eagle's medium/Nutrient Mixture F-12 (Gibco, Karlsruhe), 10% fetal bovine serum (PAN Biotech Aidenbach) supplemented with 50 μg/ml penicillin/streptomycin (Gibco, Karlsruhe), 2 mM L-glutamine (PAN Biotech, Aidenbach), 400 μg/ml G418 (AppliChem, Darmstadt) and 0.3 μg/ml tetracycline. Cells were subcultured once a week in a 1:5 ratio, but were usually not passaged more than ten times. For the assay 60,000 cells were seeded in maintenance medium without any tetracycline into each well of a 96-well plate and treated with serial half-log dilutions of test compound. To minimize edge effects the outer 36 wells of the plate were not used but were filled with assay medium. On each assay plate six wells for the virus control (untreated HepAD38 cells) and six wells for the cell control (HepAD38 cells treated with 0.3 μg/ml tetracycline) were allocated, respectively. In addition, one plate set with reference inhibitors like BAY 41-4109, entecavir, and lamivudine instead of screening compounds were prepared in each experiment. In general, experiments were performed thrice in triplicates. At day 6 HBV DNA from 100 μl filtrated cell culture supernatant (AcroPrep Advance 96 Filter Plate, […] Supor membran, PALL GmbH, Dreieich) was automatically purified on the MagNa Pure LC instrument using the MagNA Pure 96 DNA and Viral NA Small Volume Kit (Roche Diagnostics, Mannheim) according to the instructions of the manufacturer. EC50 values were calculated from relative copy numbers of HBV DNA In brief, 5 μl of the 100 μl eluate containing HBV DNA were subjected to PCR LC480 Probes Master Kit (Roche) together with 1 μM antisense primer […], 0.5 μM sense primer […], 0.3 μM hybprobes […]-FL and LC640-[…]-PH (TIBMoBiol, Berlin) to a final volume of 12.5 μl. The PCR was performed on the Light Cycler 480 real time system (Roche Diagnostics, Mannheim) using the following protocol: Pre-incubation for 1 min at 95° C., amplification: 40 cycles×(10 sec at 95° C., 50 sec at 60° C., 1 sec at 70° C.), cooling for 10 sec at 40° C. Viral load was quantitated against known standards using HBV plasmid DNA of pCH-9/3091 (Nassal et al., 1990, Cell 63: 1357-1363) and the LightCycler 480 SW 1.5 software (Roche Diagnostics, Mannheim) and EC50 values were calculated using non-linear regression with GraphPad Prism 6 (GraphPad Software Inc., La Jolla, USA).
(In general: Real-time PCR tracks product formation cycle by cycle.)

The nature of data set [1]: Cell viability assay (AlamarBlue) in HepAD38 cells. The note with it: human. A general note: Resazurin is reduced to fluorescent resorufin, in cell work by metabolically active cells.

SMILES strings stand for the structures.

As for `O=C(c1cc2ccccc2[nH]1)N1CCc2[nH]nc(S(=O)(=O)N3CCCC3)c2C1` [Example 210, 2-[3-(pyrrolidine-1-sulfonyl)-1H,4H,5H,6H,7H-pyrazolo[4,3-c]pyridine-5-carbonyl]-1H-indole], in the data set with HBV, the EC50 is under 1 µM. In data set [1], this compound showed a CC50 at 6 days of over 10 µM.
Regarding `O=C(c1cc2c(Cl)c(F)ccc2[nH]1)N1CCc2[nH]nc(C(=O)N3CCC(F)(F)C3)c2C1` [Example 217, 4-chloro-2-[3-(3,3-difluoropyrrolidine-1-carbonyl)-1H,4H,5H,6H,7H-pyrazolo[4,3-c]pyridine-5-carbonyl]-5-fluoro-1H-indole], in the data set on HBV, the EC50 is under 1 µM. Also, the CC50 at 6 days in data set [1] was over 10 µM.
For `CN(C(=O)c1[nH]nc2c1CN(C(=O)c1cc3ccccc3[nH]1)CC2)C1(C(=O)OC(C)(C)C)CC1` [Example 258, tert-butyl 1-[N-methyl 5-(1H-indole-2-carbonyl)-2H,4H,5H,6H,7H-pyrazolo[4,3-c]pyridine-3-amido]cyclopropane-1-carboxylate], the EC50 with HBV fell in the range of 1 to 25 µM. For the same compound, the CC50 at 6 days in data set [1] is over 10 µM.
Take `O=C(c1cc2c(F)cc(F)cc2[nH]1)N1CCc2n[nH]c(C3CCC3)c2C1` [Example 388, 2-{3-cyclobutyl-2H,4H,5H,6H,7H-pyrazolo[4,3-c]pyridine-5-carbonyl}-4,6-difluoro-1H-indole]: the EC50 in the data set on HBV was under 1 µM. Moreover, the CC50 at 6 days in data set [1] was over 10 µM.
On the same counts, the results for `Cc1cc(F)cc2[nH]c(C(=O)N3CCc4[nH]nc(C(=O)N(C)C5(CO)CC5)c4C3)cc12` [Example 243, 5-(6-fluoro-4-methyl-1H-indole-2-carbonyl)-N-[1-(hydroxymethyl)cyclopropyl]-N-methyl-1H,4H,5H,6H,7H-pyrazolo[4,3-c]pyridine-3-carboxamide] are under 1 µM and over 10 µM.
On the same counts, the results for `O=C(NC1CC1)c1n[nH]c2c1CN(C(=O)c1cc3ccccc3[nH]1)CC2` [Example 220, N-cyclopropyl-5-(1H-indole-2-carbonyl)-1H,4H,5H,6H,7H-pyrazolo[4,3-c]pyridine-3-carboxamide] are 1 to 25 µM and over 10 µM.
On to `O=C(c1cc2ccccc2[nH]1)N1CCc2[nH]nc(C(=O)N3CCC4(COC4)C3)c2C1` [Example 183, 2-(3-{2-oxa-6-azaspiro[3.4]octane-6-carbonyl}-1H,4H,5H,6H,7H-pyrazolo[4,3-c]pyridine-5-carbonyl)-1H-indole], for which the EC50 with HBV lay in the range of 1 to 25 µM. In addition, the CC50 at 6 days in data set [1] is over 10 µM.
On to `O=C(c1cc2ccccc2[nH]1)N1CCc2n[nH]c(C(=O)N3CC(F)(F)CC34CC4)c2C1` [Example 401, 2-(3-{6,6-difluoro-4-azaspiro[2.4]heptane-4-carbonyl}-2H,4H,5H,6H,7H-pyrazolo[4,3-c]pyridine-5-carbonyl)-1H-indole], for which the EC50 in the data set with HBV is under 1 µM. This compound also had a CC50 at 6 days in data set [1] of over 10 µM.
On the same counts, the results for `O=C(c1cc2c(Cl)cc(F)cc2[nH]1)N1CCc2[nH]nc(C(=O)N3CCC(F)(F)C3)c2C1` [Example 229, 4-chloro-2-[3-(3,3-difluoropyrrolidine-1-carbonyl)-1H,4H,5H,6H,7H-pyrazolo[4,3-c]pyridine-5-carbonyl]-6-fluoro-1H-indole] are under 1 µM and over 10 µM.
For `CCOCC1(N(C)C(=O)c2[nH]nc3c2CN(C(=O)c2cc4ccc(F)cc4[nH]2)CC3)CC1` [Example 395, N-[1-(ethoxymethyl)cyclopropyl]-5-(6-fluoro-1H-indole-2-carbonyl)-N-methyl-2H,4H,5H,6H,7H-pyrazolo[4,3-c]pyridine-3-carboxamide], in the data set with HBV, the EC50 was under 1 µM. The compound further returned a CC50 at 6 days in data set [1] of over 10 µM.
Take `O=C(c1cc2ccccc2[nH]1)N1CCc2[nH]nc(S(=O)(=O)N3CC(F)(F)C3)c2C1` [Example 209, 2-{3-[(3,3-difluoroazetidin-1-yl)sulfonyl]-1H,4H,5H,6H,7H-pyrazolo[4,3-c]pyridine-5-carbonyl}-1H-indole]: the EC50 in the data set with HBV was under 1 µM. In data set [1], this compound yielded a CC50 at 6 days of over 10 µM.
The corresponding values for `COC(=O)CC1(N(C)C(=O)c2n[nH]c3c2CN(C(=O)c2cc4ccccc4[nH]2)CC3)CC1` [Example 226, methyl 2-{1-[N-methyl 5-(1H-indole-2-carbonyl)-1H,4H,5H,6H,7H-pyrazolo[4,3-c]pyridine-3-amido]cyclopropyl}acetate] are 1 to 25 µM and over 10 µM.
`O=C(c1cc2c(Cl)cccc2[nH]1)N1CCc2[nH]nc(C(=O)N3CCCC34CC4)c2C1` [Example 216, 2-(3-{4-azaspiro[2.4]heptane-4-carbonyl}-1H,4H,5H,6H,7H-pyrazolo[4,3-c]pyridine-5-carbonyl)-4-chloro-1H-indole]: the EC50 in the data set with HBV was under 1 µM. This compound also registered a CC50 at 6 days in data set [1] of over 10 µM.
On the same counts, the results for `O=C(c1cc2c(F)c(F)ccc2[nH]1)N1CCc2n[nH]c(C3CCC3)c2C1` [Example 391, 2-{3-cyclobutyl-2H,4H,5H,6H,7H-pyrazolo[4,3-c]pyridine-5-carbonyl}-4,5-difluoro-1H-indole] are under 1 µM and over 10 µM.
`O=C(c1cc2c(F)cccc2[nH]1)N1CCc2n[nH]c(C3CCC3)c2C1` [Example 397, 2-{3-cyclobutyl-2H,4H,5H,6H,7H-pyrazolo[4,3-c]pyridine-5-carbonyl}-4-fluoro-1H-indole]: the EC50 in the data set on HBV was under 1 µM. In data set [1], this compound gave a CC50 at 6 days of over 10 µM.
The corresponding values for `O=C(c1cc2c(F)c(F)c(F)cc2[nH]1)N1CCc2n[nH]c(-c3cscn3)c2C1` [Example 11, 4,5,6-trifluoro-2-[3-(1,3-thiazol-4-yl)-2H,4H,5H,6H,7H-pyrazolo[4,3-c]pyridine-5-carbonyl]-1H-indole] are under 1 µM and over 10 µM.
`CN(C(=O)c1n[nH]c2c1CN(C(=O)c1cc3c(Cl)c(F)ccc3[nH]1)CC2)C1(CO)CC1` [Example 239, 5-(4-chloro-5-fluoro-1H-indole-2-carbonyl)-N-[1-(hydroxymethyl)cyclopropyl]-N-methyl-1H,4H,5H,6H,7H-pyrazolo[4,3-c]pyridine-3-carboxamide]: in the data set on HBV, the EC50 is under 1 µM. Also, the CC50 at 6 days in data set [1] was over 10 µM.
The corresponding values for `O=C(c1cc2c(Cl)cccc2[nH]1)N1CCc2n[nH]c(C3CCC3)c2C1` [Example 387, 4-chloro-2-{3-cyclobutyl-2H,4H,5H,6H,7H-pyrazolo[4,3-c]pyridine-5-carbonyl}-1H-indole] are under 1 µM and over 10 µM.
Take `CN(C(=O)c1[nH]nc2c1CN(C(=O)c1cc3cc(F)ccc3[nH]1)CC2)C1CC1` [Example 321, N-cyclopropyl-5-(5-fluoro-1H-indole-2-carbonyl)-N-methyl-2H,4H,5H,6H,7H-pyrazolo[4,3-c]pyridine-3-carboxamide]: the EC50 in the data set with HBV was under 1 µM. This compound registered a CC50 at 6 days in data set [1] of over 10 µM.
With `O=C(c1cc2c(F)ccc(F)c2[nH]1)N1CCc2[nH]nc(C3CCC3)c2C1` [Example 396, 2-{3-cyclobutyl-1H,4H,5H,6H,7H-pyrazolo[4,3-c]pyridine-5-carbonyl}-4,7-difluoro-1H-indole], the EC50 in the data set with HBV was under 1 µM. This compound also had a CC50 at 6 days in data set [1] of over 10 µM.
On the same counts, the results for `CC(F)(F)c1cc(F)cc2[nH]c(C(=O)N3CCc4n[nH]c(C5CCC5)c4C3)cc12` [Example 399, 2-{3-cyclobutyl-2H,4H,5H,6H,7H-pyrazolo[4,3-c]pyridine-5-carbonyl}-4-(1,1-difluoroethyl)-6-fluoro-1H-indole] are under 1 µM and over 10 µM.
For the compound `CN(CCC(=O)O)C(=O)CCN(C)C(=O)c1[nH]nc2c1CN(C(=O)c1cc3ccccc3[nH]1)CC2` [Example 275, 3-(3-{1-[5-(1H-indole-2-carbonyl)-2H,4H,5H,6H,7H-pyrazolo[4,3-c]pyridin-3-yl]-N-methylformamido}-N-methylpropanamido)propanoic acid], in the data set on HBV, the EC50 is 1 to 25 µM. Besides, in data set [1], the CC50 at 6 days is over 10 µM.
On the same counts, the results for `CN(C(=O)c1n[nH]c2c1CN(C(=O)c1cc3ccccc3[nH]1)CC2)C1(c2ccccc2)CC1` [Example 221, 5-(1H-indole-2-carbonyl)-N-methyl-N-(1-phenylcyclopropyl)-1H,4H,5H,6H,7H-pyrazolo[4,3-c]pyridine-3-carboxamide] are under 1 µM and over 10 µM.
